Experiments:
[1] = system: retinal ischemia in Wistar rats; experiment: ERG b-wave recording after raised-IOP retinal ischemia/reperfusion; format: in vivo, rat; settings: for ERG b-wave ratio (treated eye to untreated fellow eye): mean±S.E.M.; for ERG b-wave amplitude: Wistar rat
Procedure: Emodin was purchased from Sigma-Aldrich (E7881; 90%; storage at 2-8° C.; from Frangula bark; St. Louis, Mo., United States). Drug administration for different procedures, namely ERG, fluorogold RGC labelling, cresyl violet retinal staining and Western blot assays, were described in Tables 3 to 6. Vehicle or emodin (5 μL) was administered via an intravitreous injection route so that these agents were then able to be directly diffused to the target. Emodin was dissolved in vehicle (DMSO:distilled water=1:3). The defined final cellular concentrations of administered drug were 0.25 or 0.5 μM, which were achieved after 40 times dilution from the stock concentrations, namely 10 or 20 μM, based on an arbitrary definition of the vitreous volume as 200 μL. To test a wider range of dose-response, 4 μM of emodin was thus added in the animal experiments. The Vehicle+IR and Emo+IR groups (pre-ischemic administration of emodin 4, 10 or 20 μM) were subjected to following the experimental procedures; these were initial pre-ischemic intravitreous injection (vehicle or emodin), retinal ischemia induction 1 day later, and sacrifice of the animal on the following day to allow the various post-mortem procedures except ERG. In the post-ischemic treatment group, in order to decrease the number of animals used, the present invention only used a single emodin concentration of 20 μM. Furthermore, intravitreous emodin was given 1 day after initial retinal ischemia induction and animals were sacrificed the following day to allow the performance of various post-mortem procedures as mentioned above.
The IOP procedure used raised the IOP and was designed to cause retinal ischemia in Wistar rats and simulate ischemic retinal disorders. The rats were anesthetized and constrained with a sterotaxic frame. A 30-gauge needle connected to an elevated saline bottle was attached to anterior chamber of the rat's eye. The pressure exerted by the saline inside the bottle was controlled to 120 mmHg. This procedure was conducted for 1 hour. Successful retinal ischemia induction was confirmed by observing that the whitening of the retina took place. Throughout the experiments, the animals were kept on heat mats to maintain their temperature. The sham procedure involved keeping the pressure in saline bottle 0 mmHg.
Animals were given anesthesia prior to the flash ERG measurements. For the Sham or pre-ischemic treatment group (intravitreous injection of emodin or vehicle 1 day before ischemia; Emodin+IR or Vehicle+IR), flash ERG responses were measured before the sham procedure, IR procedures or any drug administration (day 0), and one day after the sham procedure or IR procedure with pre-ischemic intravitreous injection. In the post-ischemic treatment group, ERG recordings were collected pre-ischemia (day 0), and post-ischemia (at timepoints: 1 day after ischemia; 1 day after post-ischemic intravitreous injection of emodin). Dark adaption and pupil dilation using 1% tropicamide and 2.5% phenylephrine were carried out 8 hours before the ERG measurement. The ERG recording machinery was purchased from the Grass-Telefactor Company (AstroNova, QC, Canada) and included a stimulator (PS22), a regulated power supply (RPS107), and an amplifier (P511). A strobe light (0.5 Hz), which acted as the source of stimulus, was placed 2 cm directly in front of the rat's eye. Fifteen consecutive measurements (10 kHz) were retrieved every two seconds. The amplitudes were calculated to obtain an average. To make comparisons between the various groups, the ratios of the b-wave amplitude of one eye (sham procedure or ischemic insult with defined agents) to that of the untreated fellow normal eye were analyzed.

RGC-5 cells = experiment: cells; format: cell-based; settings: Mus musculus, RGC5, read-out: Cell viability (% of control)
Procedure: RGC-5 cells have been reported to be not transformed rat RGCs, but rather are mouse retinal neuronal precursor cells. OGD was established by incubating RGC-5 cells in Dulbecco's modified Eagle medium (DMEM; Thermo Fisher Scientific Inc.) without glucose at 37° C. under ischemia simulation conditions, namely 1% O2 (measured using a Penguin Incubator; Astec Company, Kukuoka, Japan), 94% N2 and 5% CO2. Various experimental groups (Table 1) were investigated. […]
Mitochondrial nicotinamide adenine dinucleotide phosphate dependent oxidoreductases are able to reduce MTT to produce formazan and thus increased levels of dark purple formazan that are associated with greater cell viability. […] After shaking, the optical density (OD) of the dissolved formazan was measured using an ELISA plate reader (Synergy H1 Multi-Mode Reader BioTek Instruments) at 562 nm. Cell viability was calculated as the change in OD value compared to the untreated control (100%).
The cultured cells were used to identify the effective dose(s) of the tested agent emodin. The effect of emodin (0.25 and 0.5 μM) on the cultured cells was evaluated utilizing MTT cell viability assays and a cellular ischemia simulation model, namely OGD, for 1 day. […]

- ERG b-wave ratio (treated eye to untreated fellow eye) ([1]; Emo4+IR: pre-ischemic intravitreous 4 μM emodin, n=8, Sham normalized to 1, Vehicle+IR 0.04): 0.08±0.07
- ERG b-wave amplitude ([1]; Emo4+IR: pre-ischemic intravitreous injection of 4 μM emodin followed by IR, Sham 0.87, Vehicle+IR 0.03): 0.07 mV
- ERG b-wave ratio (treated eye to untreated fellow eye) ([1]; Emo10+IR: pre-ischemic intravitreous 10 μM emodin, n=4, P<0.001 vs Vehicle+IR): 0.64±0.28
- ERG b-wave amplitude ([1]; Emo10+IR: pre-ischemic intravitreous injection of 10 μM emodin followed by IR): 0.58 mV
- ERG b-wave ratio (treated eye to untreated fellow eye) ([1]; Emo20+IR: pre-ischemic intravitreous 20 μM emodin, n=4, P<0.001 vs Vehicle+IR): 0.99±0.18
- ERG b-wave amplitude ([1]; Emo20+IR: pre-ischemic intravitreous injection of 20 μM emodin followed by IR): 0.63 mV
- ERG b-wave amplitude ([1]; IR+Emo20: IR followed by post-ischemic intravitreous injection of 20 μM emodin): 0.12 mV
- ERG b-wave ratio (treated eye to untreated fellow eye) ([1]; IR+Emo20: post-ischemic intravitreous 20 μM emodin, n=9, P<0.001 vs Vehicle+IR): 0.24±0.09
SMILES: Cc1cc(O)c2c(c1)C(=O)c1cc(O)cc(O)c1C2=O [emodin, 6-methyl-1,3,8-trihydroxyanthraquinone]
- viability at 0.25 µM (RGC-5 cells): 43.8 ± 3.75%
- viability at 0.5 µM (RGC-5 cells): 47.5 ± 3.99%

Source: patent publication US20210393547A1, “USE OF EMODIN IN TREATING RETINAL ISCHEMIA OR A DISEASE, CONDITION, OR DISORDER ASSOCIATED WITH RETINAL ISCHEMIA” (priority 2020, published 2021)
